Experimental data from patent publication US20250276964A1 (Novartis AG, priority 2021, published 2025).
Counter-ions that a name gives are not always drawn.

Target: T1, WIZ (Homo sapiens, UniProt O95785+Q96SW2)
T1 construct: expressed in transfected cells
Experiment: Quantification of WIZ protein levels in HiBit tag fusion protein assay (WIZ HiBit assay in 293T cells)
Format: cell-based
Conditions: for Dmax at 25 µM / remaining activity at 25 µM: HEK-293T; for Dmax at 25 µM / % degradation of WIZ (100-Amax): 100 minus Amax at 25 uM; for Dmax at 25 µM: read-out: % degradation of WIZ (100-Amax); for remaining activity at 25 µM / WIZ Amax: DMSO-normalized, curve-fitted percentage of WIZ-HiBit remaining at 25 uM; for remaining activity at 25 µM: read-out: WIZ Amax; for DC50: WIZ HiBit assay in 293T cells, 10-point, 5-fold dilution, highest concentration 25 μM, about 18 hours, read-out: WIZ AC50
Experimental: The HiBit system from Promega was used to develop high-throughput and quantitative assays to measure changes in WIZ protein levels in response to compounds. The HiBit tag was derived from a split Nanoluciferase and has the following protein sequence: […] (SEQ ID NO: 1). The complementary fragment of Nanoluciferase (known as LgBit, from Promega), was added to the HiBit tag to form an active Nanoluciferase enzyme whose activity can be precisely measured. In this way, the levels of a fusion protein with the HiBit tag can be quantified in cell lysates.
Lentiviral vectors, based on the Invitrogen™ pLenti6.2/V5 DEST backbone were constructed that places the HiBit tag upstream of WIZ and expressed the fusion protein from an HSVTK promotor.
To ensure moderate and consistent expression of the HiBit-WIZ fusion protein across all cells in the population, stable cell lines were constructed from cells harboring a single copy of the construct. Lentivirus packaged with the constructs were made using the ViraPower™kit from Invitrogen™. 293T cells from ATCC (Catalog number: CRL-3216), were infected with the virus at low multiplicity of infection and selected by 5 μg/mL blasticidin in culture media for 2 weeks.
The levels of HiBit-WIZ tagged fusion proteins in compound-treated cell lines were measured as follows:
On day 1, cells were diluted to 1.0×10^6 cells/ml in normal growth medium. 20 μL of cell suspension were plated in each well of a solid white 384-well plate. Plates were incubated overnight in a 37° C. and 5% CO2 humidified tissue culture incubator.
On day 2, serial dilutions of compounds were made in 384-well plates. Compound plates were set up with DMSO in columns 1, 2, 23, 24, and 10-point compound dilution series in column 3-12 and column 13-22. 10 mM stock solution of compound were placed into column 3 or 13 and a 1:5 serial dilution was carried out until there was a 10-point dilution series per compound. 50 nL of diluted compounds were transferred into the plated cells by Echo® (Labcyte) acoustic transfer. The highest concentration of compound was 25 μM. Plates were incubated overnight (about 18 hours) in a 37° C. and 5% CO2 humidified tissue culture incubator.
On day 3, plates were removed from the incubator and allowed to equilibrate at room temperature for 60 minutes. HiBit substrate (Nano-Glo® HiBit Lytic Detection System, Promega Catalogue number: N3050) was added as described by the manufacturers protocols. Plates were incubated at room temperature for 30 minutes and luminescence was read using an EnVision® reader (PerkinElmer®). Data was analyzed and visualized using the Spotfire® software package.
WIZ Amax reflects the DMSO-normalized, curve-fitted percentage of WIZ-HiBit remaining at 25 uM. It was calculated by normalizing DMSO controls to 100%, parametric curve fitting of the dose response data (10-point, 5-fold), followed by calculation of response at 25 uM using the fitted equation (nd=not determined).

T1 sequence (O95785 whole entry): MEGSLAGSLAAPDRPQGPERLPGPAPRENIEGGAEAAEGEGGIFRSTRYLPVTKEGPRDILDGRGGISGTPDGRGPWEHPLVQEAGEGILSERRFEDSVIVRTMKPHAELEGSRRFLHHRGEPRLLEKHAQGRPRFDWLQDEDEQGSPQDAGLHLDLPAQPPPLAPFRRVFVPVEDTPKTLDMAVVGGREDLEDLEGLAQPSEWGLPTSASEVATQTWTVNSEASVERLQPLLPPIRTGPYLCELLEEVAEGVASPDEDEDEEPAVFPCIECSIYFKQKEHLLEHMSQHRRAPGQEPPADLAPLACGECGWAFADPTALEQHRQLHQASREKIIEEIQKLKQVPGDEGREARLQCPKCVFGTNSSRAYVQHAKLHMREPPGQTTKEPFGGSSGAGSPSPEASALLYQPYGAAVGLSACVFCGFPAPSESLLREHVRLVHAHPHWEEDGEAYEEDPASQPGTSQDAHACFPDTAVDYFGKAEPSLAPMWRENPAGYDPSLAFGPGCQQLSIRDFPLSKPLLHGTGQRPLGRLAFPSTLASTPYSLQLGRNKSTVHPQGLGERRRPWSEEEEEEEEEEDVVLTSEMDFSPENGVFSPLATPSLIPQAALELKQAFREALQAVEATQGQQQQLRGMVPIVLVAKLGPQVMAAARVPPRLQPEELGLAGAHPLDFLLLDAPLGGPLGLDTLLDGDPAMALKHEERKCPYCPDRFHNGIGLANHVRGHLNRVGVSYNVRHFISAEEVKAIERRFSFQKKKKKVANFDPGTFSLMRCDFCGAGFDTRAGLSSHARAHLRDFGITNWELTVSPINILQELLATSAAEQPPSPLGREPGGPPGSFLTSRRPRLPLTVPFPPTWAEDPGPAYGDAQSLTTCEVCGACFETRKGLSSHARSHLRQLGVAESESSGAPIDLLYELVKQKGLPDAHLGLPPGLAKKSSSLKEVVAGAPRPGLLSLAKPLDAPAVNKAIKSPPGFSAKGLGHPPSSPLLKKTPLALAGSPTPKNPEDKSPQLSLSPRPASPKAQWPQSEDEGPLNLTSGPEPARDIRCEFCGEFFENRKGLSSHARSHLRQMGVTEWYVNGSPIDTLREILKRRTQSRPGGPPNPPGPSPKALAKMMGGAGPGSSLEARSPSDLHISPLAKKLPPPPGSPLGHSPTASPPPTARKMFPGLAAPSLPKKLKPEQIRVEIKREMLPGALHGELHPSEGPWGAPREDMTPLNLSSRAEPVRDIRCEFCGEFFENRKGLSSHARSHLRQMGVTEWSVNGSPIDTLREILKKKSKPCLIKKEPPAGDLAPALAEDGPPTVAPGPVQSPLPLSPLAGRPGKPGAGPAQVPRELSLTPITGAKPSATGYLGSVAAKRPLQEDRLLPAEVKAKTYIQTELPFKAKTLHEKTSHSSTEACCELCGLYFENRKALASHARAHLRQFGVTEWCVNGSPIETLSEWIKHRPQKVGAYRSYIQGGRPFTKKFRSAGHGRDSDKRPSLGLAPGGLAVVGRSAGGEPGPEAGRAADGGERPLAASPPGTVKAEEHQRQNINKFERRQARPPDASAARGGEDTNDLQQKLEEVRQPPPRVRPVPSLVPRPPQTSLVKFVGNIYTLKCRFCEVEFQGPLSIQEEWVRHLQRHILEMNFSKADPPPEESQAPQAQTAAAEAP
T1 sequence (Q96SW2 whole entry): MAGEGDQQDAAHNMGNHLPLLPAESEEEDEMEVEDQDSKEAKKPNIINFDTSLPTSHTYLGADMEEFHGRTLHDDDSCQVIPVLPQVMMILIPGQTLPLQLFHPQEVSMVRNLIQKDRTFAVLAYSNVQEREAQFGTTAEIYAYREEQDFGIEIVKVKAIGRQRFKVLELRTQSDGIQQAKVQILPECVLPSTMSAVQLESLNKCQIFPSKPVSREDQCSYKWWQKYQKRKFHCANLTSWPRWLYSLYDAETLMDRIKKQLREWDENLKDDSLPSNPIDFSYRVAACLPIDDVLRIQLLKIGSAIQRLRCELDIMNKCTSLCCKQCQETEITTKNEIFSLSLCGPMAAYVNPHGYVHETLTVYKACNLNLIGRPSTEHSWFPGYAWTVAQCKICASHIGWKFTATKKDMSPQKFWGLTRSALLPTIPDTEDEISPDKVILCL
T1 sequence (Q16531 whole entry partner): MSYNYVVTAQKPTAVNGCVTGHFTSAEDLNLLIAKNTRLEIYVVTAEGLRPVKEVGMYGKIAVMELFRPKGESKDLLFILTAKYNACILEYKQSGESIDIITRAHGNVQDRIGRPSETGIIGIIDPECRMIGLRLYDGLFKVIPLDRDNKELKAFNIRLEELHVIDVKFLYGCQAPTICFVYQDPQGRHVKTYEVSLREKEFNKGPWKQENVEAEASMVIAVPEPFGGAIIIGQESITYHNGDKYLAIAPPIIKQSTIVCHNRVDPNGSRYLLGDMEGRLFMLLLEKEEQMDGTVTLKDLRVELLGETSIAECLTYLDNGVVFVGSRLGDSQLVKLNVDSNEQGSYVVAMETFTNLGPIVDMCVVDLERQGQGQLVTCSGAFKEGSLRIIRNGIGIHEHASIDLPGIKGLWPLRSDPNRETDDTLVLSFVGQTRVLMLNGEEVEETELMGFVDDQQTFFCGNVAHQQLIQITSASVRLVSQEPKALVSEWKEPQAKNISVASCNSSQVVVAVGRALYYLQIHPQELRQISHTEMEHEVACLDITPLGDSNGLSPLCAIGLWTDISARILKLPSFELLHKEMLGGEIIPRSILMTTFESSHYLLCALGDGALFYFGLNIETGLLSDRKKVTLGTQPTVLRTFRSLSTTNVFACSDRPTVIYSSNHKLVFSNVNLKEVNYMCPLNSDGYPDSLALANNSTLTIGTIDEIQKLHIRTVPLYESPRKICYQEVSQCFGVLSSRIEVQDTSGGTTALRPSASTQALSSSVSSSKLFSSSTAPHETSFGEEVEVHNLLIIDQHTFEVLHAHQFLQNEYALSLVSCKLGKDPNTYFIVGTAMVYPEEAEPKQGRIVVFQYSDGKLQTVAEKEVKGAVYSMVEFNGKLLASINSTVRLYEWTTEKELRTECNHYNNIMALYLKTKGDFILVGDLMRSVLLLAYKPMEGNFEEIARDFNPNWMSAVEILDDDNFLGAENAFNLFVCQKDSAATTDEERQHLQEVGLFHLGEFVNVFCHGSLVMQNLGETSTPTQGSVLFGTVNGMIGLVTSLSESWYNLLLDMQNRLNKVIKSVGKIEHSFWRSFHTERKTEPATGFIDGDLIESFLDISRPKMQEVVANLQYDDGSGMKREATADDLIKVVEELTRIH

Structure (SMILES)	Dmax at 25 µM [%]	remaining activity at 25 µM [%]	DC50 [nM]	% degradation of WIZ (100-Amax) [%]	WIZ Amax [%]
CS(=O)(=O)N1[C@@H]2CC[C@H]1CC(Cc1ccc3onc(N4CCC(=O)NC4=O)c3c1)C2 (stereo partly drawn) [Example 60, 1-(5-(((1R,5S)-8-(methylsulfonyl)-8-azabicyclo[3.2.1]octan-3-yl)methyl)benzo[d]isoxazol-3-yl)dihydropyrimidine-2,4(1H,3H)-dione]	90	10	9		
CC(=O)N1CCN(Cc2ccc3onc(N4CCC(=O)NC4=O)c3c2)[C@H](C)C1 [Example 64, (R)-1-(5-((4-acetyl-2-methylpiperazin-1-yl)methyl)benzo[d]isoxazol-3-yl)dihydropyrimidine-2,4(1H,3H)-dione]	75	25	229		
CN1CCN(Cc2ccc3onc(N4CCC(=O)NC4=O)c3c2)C[C@@H]1C(F)F [Example 118, (R)-1-(5-((3-(difluoromethyl)-4-methylpiperazin-1-yl)methyl)benzo[d]isoxazol-3-yl)dihydropyrimidine-2,4(1H,3H)-dione]	80	20	208		
CC(C)CN1CCN(Cc2ccc3onc(N4CCC(=O)NC4=O)c3c2)[C@H](C(C)C)C1 [Example 90, (R)-1-(5-((4-isobutyl-2-isopropylpiperazin-1-yl)methyl)benzo[d]isoxazol-3-yl)dihydropyrimidine-2,4(1H,3H)-dione]	85	15	7		
O=C1CCN(c2noc3ccc(CN4CCN(C5CCC5)CC4)cc23)C(=O)N1 [Example 80, 1-(5-((4-cyclobutylpiperazin-1-yl)methyl)benzo[d]isoxazol-3-yl)dihydropyrimidine-2,4(1H,3H)-dione]	93	7	14		
CC(C)CN1CCN(Cc2ccc3onc(N4CCC(=O)NC4=O)c3c2)[C@@H](C)C1 [Example 32, (S)-1-(5-((4-isobutyl-2-methylpiperazin-1-yl)methyl)benzo[d]isoxazol-3-yl)dihydropyrimidine-2,4(1H,3H)-dione]	91	9	99		
O=C1CCN(c2noc3ccc(CC4CCN(CC5CC5)CC4)cc23)C(=O)N1 [Example 6, 1-(5-((1-(cyclopropylmethyl)piperidin-4-yl)methyl)benzo[d]isoxazol-3-yl)dihydropyrimidine-2,4(1H,3H)-dione]	91	9	30		
CC(c1ccc2onc(N3CCC(=O)NC3=O)c2c1)N1CCN(C)CC1 (stereo not drawn) [Example 127, 1-(5-(1-(4-methylpiperazin-1-yl)ethyl)benzo[d]isoxazol-3-yl)dihydropyrimidine-2,4(1H,3H)-dione]	91	9	149		
CC(C)[C@@H]1CN(C)CCN1Cc1ccc2onc(N3CCC(=O)NC3=O)c2c1 [Example 89, (R)-1-(5-((2-isopropyl-4-methylpiperazin-1-yl)methyl)benzo[d]isoxazol-3-yl)dihydropyrimidine-2,4(1H,3H)-dione]	83	17	28		
CC(C)(C)OC(=O)N1[C@@H]2CC[C@H]1CC(Cc1ccc3onc(N4CCC(=O)NC4=O)c3c1)C2 (single isomer, unassigned) [Example 55]			3200	70	30
CN1CCCN(Cc2ccc3onc(N4CCC(=O)NC4=O)c3c2)CC1 [Example 63, 1-(5-((4-methyl-1,4-diazepan-1-yl)methyl)benzo[d]isoxazol-3-yl)dihydropyrimidine-2,4(1H,3H)-dione]	84	16	28		
CS(=O)(=O)N1[C@@H]2CC[C@H]1CC(Cc1ccc3onc(N4CCC(=O)NC4=O)c3c1)C2 (stereo partly drawn) [Example 61, 1-(5-(((1R,5S)-8-(methylsulfonyl)-8-azabicyclo[3.2.1]octan-3-yl)methyl)benzo[d]isoxazol-3-yl)dihydropyrimidine-2,4(1H,3H)-dione]			26	85	15
O=C1CCN(c2noc3ccc(CN4CCN(CC5CCOCC5)[C@@H](C(F)F)C4)cc23)C(=O)N1 [Example 115, (R)-1-(5-((3-(difluoromethyl)-4-((tetrahydro-2H-pyran-4-yl)methyl)piperazin-1-yl)methyl)benzo[d]isoxazol-3-yl)dihydropyrimidine-2,4(1H,3H)-dione]	78	22	53		
O=C1CCN(c2noc3ccc(CC4CCN(CC5CCC(F)(F)CC5)CC4)cc23)C(=O)N1 [Example 2, 1-(5-((1-((4,4-difluorocyclohexyl)methyl)piperidin-4-yl)methyl)benzo[d]isoxazol-3-yl)dihydropyrimidine-2,4(1H,3H)-dione]	92	8	1.2		
O=C1CCN(c2noc3ccc(CN4C[C@@H]5C[C@H]4CN5CC4CCOCC4)cc23)C(=O)N1 [Example 95, 1-(5-(((1S,4S)-5-((tetrahydro-2H-pyran-4-yl)methyl)-2,5-diazabicyclo[2.2.1]heptan-2-yl)methyl)benzo[d]isoxazol-3-yl)dihydropyrimidine-2,4(1H,3H)-dione]	82	18	188		
O=C1CCN(c2noc3ccc(CN4CCN(CC5CCOCC5)CC4)cc23)C(=O)N1 [Example 23, 1-(5-((4-((tetrahydro-2H-pyran-4-yl)methyl)piperazin-1-yl)methyl)benzo[d]isoxazol-3-yl)dihydropyrimidine-2,4(1H,3H)-dione]	91	9	4		
O=C1CCN(c2noc3ccc(CN4CCN5[C@@H](CCS5(=O)=O)C4)cc23)C(=O)N1 [Example 112, (S)-1-(5-((1,1-dioxidohexahydro-5H-isothiazolo[2,3-a]pyrazin-5-yl)methyl)benzo[d]isoxazol-3-yl)dihydropyrimidine-2,4(1H,3H)-dione]	87	13	45		
CN1C[C@H]2CC[C@@H](C1)N2Cc1ccc2onc(N3CCC(=O)NC3=O)c2c1 [Example 103, 1-(5-(((1R,5S)-3-methyl-3,8-diazabicyclo[3.2.1]octan-8-yl)methyl)benzo[d]isoxazol-3-yl)dihydropyrimidine-2,4(1H,3H)-dione]	86	14	68		
C[C@@H]1CN(C2CC2)CCN1Cc1ccc2onc(N3CCC(=O)NC3=O)c2c1 [Example 120, (R)-1-(5-((4-cyclopropyl-2-methylpiperazin-1-yl)methyl)benzo[d]isoxazol-3-yl)dihydropyrimidine-2,4(1H,3H)-dione]	83	17	538		
O=C1CCN(c2noc3ccc(CC4CCNCC4)cc23)C(=O)N1 [Example 1b, 1-(5-(piperidin-4-ylmethyl)benzo[d]isoxazol-3-yl)dihydropyrimidine-2,4(1H,3H)-dione hydrochloride]	88	12	210		
O=C1CCN(c2noc3ccc(CC4CCCNC4)cc23)C(=O)N1 (stereo not drawn) [Example 43, 1-(5-(piperidin-3-ylmethyl)benzo[d]isoxazol-3-yl)dihydropyrimidine-2,4(1H,3H)-dione]	78	22	940		
C[C@@H]1CN(S(=O)(=O)N2CCCC2)CCN1Cc1ccc2onc(N3CCC(=O)NC3=O)c2c1 [Example 74, (R)-1-(5-((2-methyl-4-(pyrrolidin-1-ylsulfonyl)piperazin-1-yl)methyl)benzo[d]isoxazol-3-yl)dihydropyrimidine-2,4(1H,3H)-dione]	76	24	437		
